14 compounds from patent publication US5202349A, “Substituted phenylacetylenes, pharmaceutical compositions containing these compounds and processes for the preparation of these compounds and compositions” (Gruenenthal GmbH, priority 1990, dated 1993) can be followed below.

Test [1] deals with ex vivo iLTB4-formation (5-lipoxygenase activity) in whole blood of rats. Briefly: Inhibition of ex vivo iLTB4-formation in rat whole blood after oral administration. Further details: species or system male rats (Wistar strain). The following applies: Rattus norvegicus, 21.5 mg/kg oral, blood taken 1 hour later. The method, then:
The bioavailability of the compounds of formula I after oral administration was characterized by means of an ex vivo biochemical assessment method described by Tateson et al. in Brit. Pharmacol., 94, 528 (1988).
Compounds of formula I were orally administered to male rats (Wistar strain). 1 hour later the rats were bled by heart puncture in letal CO2 -narcosis. The 5-lipoxygenase reaction was triggered by the addition of the calcium-ionophor A23187 to an end concentration of […] to aliquots of rat whole blood and subsequent incubation for 30 minutes at 37° C. in a water bath. At the end of the incubation the samples were centrifuged to collect the cell free plasma. The concentration of the immunoreactive LTB4 (iLTB4 ng/ml) in each plasma sample was determined by a LTB4 -radioimmunoassay (^3 H-LTB4 -RIA, Amersham) by means of a LTB4 -standard curve in diluted rat plasma. For calculation of the percent inhibition of ex vivo iLTB4 -formation in whole blood of rats treated with the compounds of formula I rats treated with appropiate vehicle solution were included in all experiments, aliquots of their blood were run in parallel and were processed in the same way as described. The mean iLTB4 -formation per ml plasma of these vehicle treated control rats served as 100 percent value of normal control 5-lipoxygenase activity. The percent inhibition of the ex vivo iLTB4 -formation after oral administration of compounds of formula I was calculated as follows: 100 minus 100 times the quotient of the mean iLTB4 concentration per ml plasma of the rats treated with compounds of formula I […] and the mean iLTB4 concentration per ml plasma of the control rats.

A further test deals with T1, 5-lipoxygenase (Rattus norvegicus, UniProt P12527).
T1 construct: endogenous in cells; host or cells: rat basophilic leukemia cells
T1 sequence (P12527 1-673): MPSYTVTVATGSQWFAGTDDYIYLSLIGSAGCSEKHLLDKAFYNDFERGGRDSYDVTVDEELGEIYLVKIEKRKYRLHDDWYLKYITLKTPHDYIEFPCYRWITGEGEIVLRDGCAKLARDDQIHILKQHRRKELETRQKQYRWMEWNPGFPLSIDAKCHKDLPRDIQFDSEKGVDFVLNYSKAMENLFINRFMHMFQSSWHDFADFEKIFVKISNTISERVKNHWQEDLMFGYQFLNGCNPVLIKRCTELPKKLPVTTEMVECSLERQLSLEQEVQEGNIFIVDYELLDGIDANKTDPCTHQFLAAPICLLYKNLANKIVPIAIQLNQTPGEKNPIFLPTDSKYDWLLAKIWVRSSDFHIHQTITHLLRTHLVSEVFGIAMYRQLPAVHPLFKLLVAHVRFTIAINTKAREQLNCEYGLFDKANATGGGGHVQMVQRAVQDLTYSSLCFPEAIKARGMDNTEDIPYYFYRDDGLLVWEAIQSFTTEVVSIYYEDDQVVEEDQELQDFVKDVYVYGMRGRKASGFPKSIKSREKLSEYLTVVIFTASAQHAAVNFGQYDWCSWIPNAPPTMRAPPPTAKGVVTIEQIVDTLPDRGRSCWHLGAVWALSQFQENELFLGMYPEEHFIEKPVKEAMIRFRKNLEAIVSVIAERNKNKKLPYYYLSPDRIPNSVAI
Briefly: Inhibition of 5-lipoxygenase in rat basophilic leukemia cells ([14C]-arachidonic acid, TLC). It is filed as cell-based. The following applies: for IC50: rat basophilic leukemia cells, standardized to nordihydroguaiaretic acid; for Quotient (IC50 cyclooxygenase (B) / 5-lipoxygenase (A)): selectivity. The method, then:
To 1 ml each of this suspension there was added indomethacin (10 μM) and calcium chlorid (2 mM) and then the mixture was incubated in presence or absence of a test compound for 3 minutes and thereafter with 20 μM of [^14 C]-arachidonic acid and 20 μM of the calcium ionophore A 23 187 for 10 minutes. The reaction was stopped by adding 20 μl of glacial acetic acid and then the mixture was extracted with ethyl acetate to isolate the metabolites of arachidonic acid formed by the enzymatic action of 5-lipoxygenase. These were separated by thin layer chromatography using a solvent mixture known to be suitable for leukotriene analysis [c.f. Jakschik et al., Biochem. Biophys. Res. Commun. 102, 624 (1981)]. The distribution of the radioactivity to the different metabolites was measured using a TLC Linear Analyzer. By bringing into relationship the percentages of the amount of the products formed under the action of 5-lipoxygenase (5-HETE, isomers of LTB4) in the controls (tests performed in absence of test compounds) and in the presence of test compounds of formula I in different concentrations the "IC50 -value" (i.e. the concentration of the test compound which causes an 50%-inhibition of the 5-lipoxygenase) is determined. For standardization these values then were brought into relationship to the IC50 -values determined in the same manner for the standard compound nordihydroguaiaretic acid.

The next test has as its target T2, cyclooxygenase (Ovis aries, UniProt P05979).
T2 construct: suspension of sheep seminal vesicle microsomes; from tissue; host or cells: sheep seminal vesicle microsomes
T2 sequence (P05979 25-600): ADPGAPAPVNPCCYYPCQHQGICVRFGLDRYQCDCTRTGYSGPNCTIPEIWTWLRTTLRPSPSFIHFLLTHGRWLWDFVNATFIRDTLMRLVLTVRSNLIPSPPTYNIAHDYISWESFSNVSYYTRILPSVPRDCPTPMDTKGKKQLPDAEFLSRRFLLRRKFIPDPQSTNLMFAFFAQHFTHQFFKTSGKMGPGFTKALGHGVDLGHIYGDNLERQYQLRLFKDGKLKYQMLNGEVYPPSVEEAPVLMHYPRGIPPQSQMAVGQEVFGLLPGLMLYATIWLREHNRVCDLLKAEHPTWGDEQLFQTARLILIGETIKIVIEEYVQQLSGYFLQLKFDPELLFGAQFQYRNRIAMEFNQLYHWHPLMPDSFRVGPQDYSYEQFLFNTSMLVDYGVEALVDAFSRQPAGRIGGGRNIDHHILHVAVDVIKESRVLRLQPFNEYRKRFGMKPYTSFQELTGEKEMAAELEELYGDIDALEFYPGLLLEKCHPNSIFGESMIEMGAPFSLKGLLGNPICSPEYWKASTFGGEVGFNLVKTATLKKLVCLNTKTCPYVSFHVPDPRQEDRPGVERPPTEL
Put plainly: Inhibition of cyclooxygenase in sheep seminal vesicle microsomes ([14C]-arachidonic acid, TLC). It is filed as biochemical. The note with it: pH 7.0, read-out: IC50 for inhibition of cyclooxygenase (B). The method, then: The effect of the test compounds on the activity of cyclooxygenase was tested using a suspension of sheep seminal vesicle microsomes in 50 mM potassium phosphate buffer of pH 7.0 which was incubated with the solvent only (as control) or with the test compound and [^14 C]-arachidonic acid. The "IC50 -values (B)" (i.e. the concentration of the test compound which causes an 50%-inhibition of the cyclooxygenase) were determined by thin layer chromatography and by means of a TLC-Linear-Analyzer.

The term inhibition in vivo denotes the share of the control response that was lost under treatment. Read a low inhibition in vivo as a weak effect. In turn, `CC(=O)N(O)C(C)c1ccc(C#Cc2ccccc2)cc1` (centres unmarked) [Example 2a, N-{1-[4-(Phenylethynyl)-phenyl]-ethyl}-acetohydroxamic acid] yielded an inhibition in vivo at 21.5 mg/kg in test [1] of 76%.
What is called IC50 is the midpoint of a concentration-inhibition curve. On to `COc1ccc(C#Cc2cccc(C(C)N(O)C(C)=O)c2)cc1OC` (centres unmarked) [Example 5b, N-{1-[3-(3,4-Dimethoxy-phenylethynyl)-phenyl]-ethyl}-acetohydroxamic acid], for which the IC50 is 280 nM at 5-lipoxygenase and greater than 500000 nM on cyclooxygenase. Moreover, on 5-lipoxygenase, the “Quotient (IC50 cyclooxygenase (B) / 5-lipoxygenase (A))” value is recorded as greater than 1786.
Consider `COc1cccc(C#Cc2cccc(C(C)N(O)C(C)=O)c2)c1` (centres unmarked) [Example 5c, N-{1-[3-(3-Methoxy-phenylethynyl)-phenyl]-ethyl}-acetohydroxamic acid], for which, on 5-lipoxygenase, half-maximal inhibition (IC50) was put at 580 nM and the “Quotient (IC50 cyclooxygenase (B) / 5-lipoxygenase (A))” value is greater than 862. Moreover, the inhibition in vivo at 21.5 mg/kg in test [1] worked out at 88%. Further, the IC50 at cyclooxygenase was greater than 500000 nM.
In turn, `CC(=O)N(O)Cc1cccc(C#Cc2ccc(C(C)C)cc2)c1` [Example 5e, N-[3-(4-Isopropyl-phenylethynyl)-benzyl]-acetohydroxamic acid] yielded an inhibition in vivo at 21.5 mg/kg in test [1] of 82%.
On to `NC(=O)N(O)Cc1cccc(C#Cc2cccc3ccccc23)c1` [Example 7, N-Hydroxy-N-[-3-(naphth-1-yl-ethynyl)-benzyl]-urea], for which the IC50 is 650 nM on 5-lipoxygenase and greater than 500000 nM on cyclooxygenase. Further, on 5-lipoxygenase, the “Quotient (IC50 cyclooxygenase (B) / 5-lipoxygenase (A))” value is greater than 769. Also, the inhibition in vivo at 21.5 mg/kg in test [1] was 90%.
Turning to `CC(c1cccc(C#Cc2ccc(F)cc2)c1)N(O)C(N)=O` (centres unmarked) [Example 8b, N-Hydroxy-N-{1-[3-(4-fluorophenylethynyl)-phenyl]-ethyl}-urea], the inhibition in vivo at 21.5 mg/kg in test [1] came out at 99%.
`COc1ccc(C#Cc2cccc(C(C)N(O)C(N)=O)c2)cc1OC` (centres unmarked) [Example 10b, N-Hydroxy-N-{1-[3-(3,4-dimethoxy-phenylethynyl)-phenyl]-ethyl}-urea]: on 5-lipoxygenase, the IC50 stood at 690 nM and the “Quotient (IC50 cyclooxygenase (B) / 5-lipoxygenase (A))” value is recorded as greater than 725. Also, in test [1], the inhibition in vivo at 21.5 mg/kg amounted to 86%. Also, the half-inhibitory concentration (IC50) on cyclooxygenase is greater than 500000 nM.
For the compound `COc1cccc(C#Cc2cccc(C(C)N(O)C(N)=O)c2)c1` (centres unmarked) [Example 10c, N-Hydroxy-N-{1-[3-(3-methoxy-phenylethynyl)-phenyl]-ethyl}-urea], on 5-lipoxygenase, the IC50 came to 270 nM and the “Quotient (IC50 cyclooxygenase (B) / 5-lipoxygenase (A))” value is listed as greater than 1852. Besides, the IC50 at cyclooxygenase is greater than 500000 nM.
`CC(C)c1ccc(C#Cc2cccc(CN(O)C(N)=O)c2)cc1` [Example 10e] yielded an inhibition in vivo at 21.5 mg/kg in test [1] of 81%.
On to `COc1ccccc1C#Cc1cccc(C(C)N(O)C(N)=O)c1` (centres unmarked) [Example 10g, N-Hydroxy-N-{1-[3-(2-methoxy-phenylethynyl)-phenyl]-ethyl}-urea], for which, at 5-lipoxygenase, the IC50 amounted to 320 nM and the “Quotient (IC50 cyclooxygenase (B) / 5-lipoxygenase (A))” value came to 844. The 50% inhibitory concentration (IC50) at cyclooxygenase was 270000 nM.
For `NC(=O)N(O)Cc1cccc(C#Cc2ccc(Cl)cc2)c1` [Example 10m, N-Hydroxy-N-[3-(4-chlorophenylethynyl)-benzyl]-urea], the IC50 was 260 nM against 5-lipoxygenase and greater than 500000 nM at cyclooxygenase. Further, the “Quotient (IC50 cyclooxygenase (B) / 5-lipoxygenase (A))” value on 5-lipoxygenase is given as greater than 1923.
The matching figures for `COc1ccc(C#Cc2cccc(CN(O)C(N)=O)c2)cc1` [Example 10n, N-Hydroxy-N-[3-(4-methoxyphenylethynyl)-benzyl]-urea]: 180 nM, greater than 500000 nM and greater than 2778.
`CC(=O)N(O)C(C)c1cccc(C#Cc2ccc(Cl)cc2)c1` (centres unmarked) [Example 12, N-{1-[3-(4-Chloro-phenylethynyl)-phenyl]-ethyl}-acetohydroxamic acid] returned an inhibition in vivo at 21.5 mg/kg in test [1] of 87%.
Regarding `NC(=O)N(O)Cc1ccc(C#Cc2cccs2)cc1` [Example 16d, N-Hydroxy-N-[4-(thien-2-yl-ethynyl)-benzyl]-urea], on 5-lipoxygenase, inhibition was half-maximal at 370 nM (IC50) and the “Quotient (IC50 cyclooxygenase (B) / 5-lipoxygenase (A))” value is 1351. Also, the IC50 at cyclooxygenase was 500000 nM.
